Experimental data reported in patent publication US20230310334A1, “LIPID NANOPARTICLE” (SHENZHEN SHENXIN BIOTECHNOLOGY CO., LTD., priority 2020, published 2023).

System: luciferase mRNA (Fluc mRNA) expression
Test: Luciferase mRNA delivery performance in vivo of lipid nanoparticles prepared from amino lipid compounds (IVIS imaging)
Design: species or system BALB/c mice
Conditions: for Average fluorescence intensity (intramuscular) / Average fluorescence intensity (subcutaneous) / Average fluorescence intensity (tail vein): Fluc mRNA LNP, 0.5 mg/kg, imaging 6 hours after injection, male BALB/c mice; for Average fluorescence intensity (intramuscular) / Average fluorescence intensity (subcutaneous): preparation process I (DOPE); for Average fluorescence intensity (tail vein): preparation process II (DSPC); for delivery capacity after introduction of the alkynyl group: in vivo delivery, compared with corresponding amino lipid compounds without alkynyl group (36, 37)
Procedure: Example 40: Evaluation of Luciferase mRNA Delivery Performance In Vivo of Lipid Nanoparticles Prepared from Amino Lipid Compounds
Preparation of lipid nanoparticles:
Preparation process I: The amino lipid compound described in the present invention and DOPE, cholesterol, PEG2000-DMG were mixed and dissolved in absolute ethanol in a molar ratio of 45:10:42.5:2.5. Two microinjection pumps were used, and the ratio of ethanol solution to sodium acetate solution (50 mM, pH=4.0) was controlled to be 1:3. A crude solution of lipid nanoparticles was prepared in a micro flow channel chip, then dialyzed for 6 hours with 1×PBS at a controlled temperature of 4° C. by using a dialysis cassette (Fisher, MWCO 20,000), and filtered with a 0.22 μm microporous filter membrane before use. The mass ratio of the amino lipid compound to luciferase mRNA (Fluc mRNA) was about 10:1. The administration route included subcutaneous and intramuscular injections.
Preparation process II: the molar ratio of amino lipid compound to DSPC, cholesterol, PEG2000-DMG was 50:10:38.5:1.5, and the preparation process was identical to the preparation process I. The administration route was tail vein administration.
Animal preparation: 6-week-old male BALB/c mice with body weights of about 20 g were selected, and fed in an SPF-grade feeding room. Animal experiments were strictly carried out according to the guidelines of the national health institution and the requirements of animal ethics. In vivo delivery: 9 mice were randomly selected per group and injected with lipid nanoparticles at a dose of 0.5 mg/kg by three administration routes: subcutaneous, intramuscular, and tail vein, respectively (three animals per administration route). After 6 hours, […] of 10 mg/mL potassium […] was injected into each mouse via the tail vein, and after 10 minutes, the mice were placed under an in vivo imaging system (IVIS-200, Xenogen), and the total fluorescence intensity of each mouse was observed and recorded by photographing. The expression intensities of Fluc mRNA delivered by the three administration routes of representative amino lipid compounds were shown in Tables 1-3. DLin-MC3 was used as a control.

CCCCC/C=C\C/C=C\CCCCCCCCC(CCCCCCCC/C=C\C/C=C\CCCCC)OC(=O)CCCN(C)C [Compound 35, (6Z,9Z,28Z,31Z)-heptatriacont-6,9,28,31-tetraene-19-yl 4-(N,N-dimethylamino)butanoate, reference compound]
Average fluorescence intensity (intramuscular): 3.9E+03 | Average fluorescence intensity (subcutaneous): 4.1E+04 | Average fluorescence intensity (tail vein): 6.2E+06

CCCCC#CCCCOC(=O)CCCCCCCN(CCCCCCCC(=O)OC(CCCCCCCC)CCCCCCCC)CCCNC(=O)CCCCC [Compound 34]
Average fluorescence intensity (intramuscular): 4.8E+06 | Average fluorescence intensity (subcutaneous): 5.3E+05

CCCCCCCC#CCOC(=O)CCCCCCCN(CCCO)CCCCCCCC(=O)OC(CCCCCCCC)CCCCCCCC [Compound 4]
Average fluorescence intensity (intramuscular): 2.1E+06 | Average fluorescence intensity (subcutaneous): 2.1E+05 | Average fluorescence intensity (tail vein): 2.9E+07

CCCC#CCCCOC(=O)CCCCCCCN(CCCCCCCC(=O)OC(CCCCCCCC)CCCCCCCC)CCCN1CCOCC1 [Compound 32]
Average fluorescence intensity (intramuscular): 2.8E+07 | Average fluorescence intensity (subcutaneous): 7.1E+05

CCCCCC#CCOC(=O)CCCCCCCN(CCO)CCCCCCCC(=O)OC(CCCCCCCC)CCCCCCCC [Compound 12]
Average fluorescence intensity (intramuscular): 2.1E+06 | Average fluorescence intensity (subcutaneous): 3.2E+07

CCCCC#CCCCOC(=O)CCCCN(CCCCO)CCCCCCCC(=O)OC(CCCCCCCC)CCCCCCCC [Compound 22]
Average fluorescence intensity (intramuscular): 3.1E+05 | Average fluorescence intensity (subcutaneous): 2.8E+07

CCCCCCC#CCCOC(=O)CCCCCCCN(CCO)CCCCCCCC(=O)OC(CCCCCCCC)CCCCCCCC [Compound 14]
Average fluorescence intensity (intramuscular): 4.1E+06 | Average fluorescence intensity (subcutaneous): 2.1E+06 | Average fluorescence intensity (tail vein): 1.1E+07

CCCCC#CCCCOC(=O)CCCCCCCCCCCCCN(CCCO)CCCCCCCC(=O)OC(CCCC)CCCCCC (stereo not drawn) [Compound 26]
Average fluorescence intensity (intramuscular): 6.1E+07 | Average fluorescence intensity (subcutaneous): 1.7E+06

CCCCCCC#CCCOC(=O)CCCCCCCN(CCCO)CCCCCCCC(=O)OC(CCCCCCCC)CCCCCCCC [Compound 7]
Average fluorescence intensity (intramuscular): 4.1E+05 | Average fluorescence intensity (subcutaneous): 2.1E+05 | Average fluorescence intensity (tail vein): 8.1E+06

CCCCCC#CCCCOC(=O)CCCCCCCN(CCCCCCCC(=O)OC(CCCCCCCC)CCCCCCCC)C1CCC(O)C1 (stereo not drawn) [Compound 19]
Average fluorescence intensity (intramuscular): 2.1E+05 | Average fluorescence intensity (tail vein): 9.1E+06

CCCCC#CCCCOC(=O)CCCCCCCCCCCCCN(CCCCO)CCCCCCCC(=O)OC(CCCCCCCC)CCCCCCCC [Compound 24]
Average fluorescence intensity (intramuscular): 2.1E+05 | Average fluorescence intensity (tail vein): 7.8E+06

CCCCC#CCCCOC(=O)CCCCCCCN(CCCCCCCC(=O)OC(CCCCCCCC)CCCCCCCC)CCCOC(=O)CCCCC [Compound 33]
Average fluorescence intensity (intramuscular): 1.1E+07 | Average fluorescence intensity (subcutaneous): 3.1E+06

CCCC#CCCCOC(=O)CCCCCCCN(CCCO)CCCCCCCC(=O)OC(CCCCCCCC)CCCCCCCC [Compound 8]
Average fluorescence intensity (intramuscular): 2.1E+07 | Average fluorescence intensity (subcutaneous): 7.1E+06 | Average fluorescence intensity (tail vein): 6.1E+06

CCCCCC#CCOC(=O)CCCCCCCN(CCCO)CCCCCCCC(=O)OC(CCCCCCCC)CCCCCCCC [Compound 2]
Average fluorescence intensity (intramuscular): 2.4E+06 | Average fluorescence intensity (subcutaneous): 1.1E+07

CCCCCCC#CCCCOC(=O)CCCCCCCN(CCCO)CCCCCCCC(=O)OC(CCCCCCCC)CCCCCCCC [Compound 11]
Average fluorescence intensity (intramuscular): 2.1E+06 | Average fluorescence intensity (subcutaneous): 2.1E+05 | Average fluorescence intensity (tail vein): 5.1E+07

CCCCC#CCCCOC(=O)CCCCCCCN(CCCCO)CCCCCCCC(=O)OC(CCCCCCCC)CCCCCCCC [Compound 17]
Average fluorescence intensity (intramuscular): 2.7E+06 | Average fluorescence intensity (subcutaneous): 2.5E+06 | Average fluorescence intensity (tail vein): 5.1E+07 | delivery capacity after introduction of the alkynyl group: significantly enhanced

CCCCC#CCCCOC(=O)CCCCCCCN(CCCO)CCCCCCCC(=O)OC(CCCCCCCC)CCCCCCCC [Compound 9]
Average fluorescence intensity (intramuscular): 5.1E+06 | Average fluorescence intensity (subcutaneous): 2.7E+06 | Average fluorescence intensity (tail vein): 2.8E+07

CCCCCC#CCCCOC(=O)CCCCCCCN(CCCO)CCCCCCCC(=O)OC(CCCCCCCC)CCCCCCCC [Compound 10]
Average fluorescence intensity (intramuscular): 2.1E+05 | Average fluorescence intensity (subcutaneous): 3.1E+05 | Average fluorescence intensity (tail vein): 2.5E+07

CCCCCCCCCC#CC(=O)OCCCCCCCN(CCCO)CCCCCCCOC(=O)C(CCCCCC)CCCCCCCC (stereo not drawn) [Compound 29]
Average fluorescence intensity (intramuscular): 1.8E+07 | Average fluorescence intensity (subcutaneous): 8.1E+06

CCCCC#CCCCOC(=O)CCCCN(CCCO)CCCCCCCC(=O)OCC(CCCCCC)CCCCCCCC (stereo not drawn) [Compound 28]
Average fluorescence intensity (intramuscular): 6.1E+07 | Average fluorescence intensity (subcutaneous): 2.1E+06

CCCCCCCCCOC(=O)CCCCCCCN(CCCCO)CCCCCCCC(=O)OC(CCCCCCCC)CCCCCCCC [Compound 36, reference compound]
Average fluorescence intensity (subcutaneous): 1.1E+05 | Average fluorescence intensity (tail vein): 4.2E+05

CCCCCCC#CCOC(=O)CCCCCCCN(CCCO)CCCCCCCC(=O)OC(CCCCCCCC)CCCCCCCC [Compound 3]
Average fluorescence intensity (intramuscular): 2.1E+06 | Average fluorescence intensity (subcutaneous): 2.1E+06 | Average fluorescence intensity (tail vein): 2.1E+07

CCCCC#CCCCOC(=O)CCCCCCCN(CCCCCCCC(=O)OC(CCCCCCCC)CCCCCCCC)CCCN(C)C [Compound 31]
Average fluorescence intensity (intramuscular): 1.5E+07 | Average fluorescence intensity (subcutaneous): 5.1E+05 | delivery capacity after introduction of the alkynyl group: significantly enhanced

CCCCCC#CCCCOC(=O)CCCCCCCN(CCCCCCCC(=O)OC(CCCCCCCC)CCCCCCCC)C1CCC(O)CC1 (stereo not drawn) [Compound 21]
Average fluorescence intensity (intramuscular): 1.1E+07 | Average fluorescence intensity (subcutaneous): 4.1E+06

CCCCC#CCCOC(=O)CCCCCCCN(CCCO)CCCCCCCC(=O)OC(CCCCCCCC)CCCCCCCC [Compound 5]
Average fluorescence intensity (subcutaneous): 7.1E+06

CCCCC#CCCCOC(=O)CCCCCCCN(CCCCCCCC(=O)OC(CCCCCCCC)CCCCCCCC)C1CC(O)C1 (stereo not drawn) [Compound 18]
Average fluorescence intensity (tail vein): 7.1E+07

CCCCCCC#CCOC(=O)CCCCCCCN(CCO)CCCCCCCC(=O)OC(CCCCCCCC)CCCCCCCC [Compound 13]
Average fluorescence intensity (intramuscular): 2.1E+06 | Average fluorescence intensity (subcutaneous): 2.6E+07

CCCCCC#CCCCOC(=O)CCCCCCCN(CCCCCCCC(=O)OC(CCCCCC)CCCCCCCC)C1CCC(O)C1 (stereo not drawn) [Compound 20]
Average fluorescence intensity (intramuscular): 5.2E+05 | Average fluorescence intensity (subcutaneous): 3.7E+07

CCCCCC#CCCOC(=O)CCCCCCCN(CCCO)CCCCCCCC(=O)OC(CCCCCCCC)CCCCCCCC [Compound 6]
Average fluorescence intensity (intramuscular): 2.1E+05 | Average fluorescence intensity (subcutaneous): 2.1E+06

CCCCCC#CCCOC(=O)CCCCCCCN(CCCCO)CCCCCCCC(=O)OC(CCCCCCCC)CCCCCCCC [Compound 16]
Average fluorescence intensity (intramuscular): 1.4E+07 | Average fluorescence intensity (subcutaneous): 2.7E+06

CCCCC#CCOC(=O)CCCCCCCN(CCCO)CCCCCCCC(=O)OC(CCCCCCCC)CCCCCCCC [Compound 1]
Average fluorescence intensity (subcutaneous): 1.4E+07

CCCCC#CCCOC(=O)CCCCCCCN(CCCCO)CCCCCCCC(=O)OC(CCCCCCCC)CCCCCCCC [Compound 15]
Average fluorescence intensity (intramuscular): 2.8E+07 | Average fluorescence intensity (subcutaneous): 3.1E+05

CCCCC#CCCCOC(=O)CCCCCCCCCCCCCN(CCCO)CCCCCCCC(=O)OC(CCCC)CCCC [Compound 25]
Average fluorescence intensity (intramuscular): 2.1E+05 | Average fluorescence intensity (subcutaneous): 2.6E+07

CCCCCCCCCOC(=O)CCCCCCCN(CCCCCCCC(=O)OC(CCCCCCCC)CCCCCCCC)CCCN(C)C [Compound 37, reference compound]
Average fluorescence intensity (intramuscular): 2.5E+06 | Average fluorescence intensity (subcutaneous): 2.0E+05

CCCCC#CCCCOC(=O)CCCCCCCCCN(CCCCO)CCCCCCCC(=O)OC(CCCCCCCC)CCCCCCCC [Compound 23]
Average fluorescence intensity (intramuscular): 2.7E+05 | Average fluorescence intensity (tail vein): 6.1E+07

CCCC#CCCCOC(=O)CCCCCCCN(CCCC#N)CCCCCCCC(=O)OC(CCCCCCCC)CCCCCCCC [Compound 30]
Average fluorescence intensity (intramuscular): 1.1E+07 | Average fluorescence intensity (subcutaneous): 7.1E+06
